Converted amounts (≈) assume the structure as drawn.
Key:
[1] = tested on: HeLa cells vs NIH/3T3 cells; assay: Selectivity index (IC50 NIH/3T3 divided by IC50 HeLa); type: cell-based; conditions: IC50 NIH/3T3 / IC50 HeLa; SI ≥ 2 considered selective
Experimental: The selectivity index (SI) was calculated by dividing the IC50 value of NIH/3T3 cells by the IC50 of HeLa cells. Samples with SI ≥ 2 were considered selectively cytotoxic to cancer cells.

[2] = tested on: HeLa (cervical cancer) cells; assay: MTT cell viability assay in HeLa cells; type: cell-based, human
Experimental: (§1) The HeLa (cervical cancer) and NIH/3T3 (murine fibroblast) cells were seeded in 96-well plates at a density of 3 × 10^4 cells/well in DMEM (Dulbecco’s Modified Eagle Medium; Gibco, Thermo Fisher, Paisley, UK), supplemented with 10% fetal bovine serum (FBS; Cultilab®, São Paulo, Brazil) and 1% penicillin/streptomycin (Pen/Strep—Cultilab®, Campinas, Brazil). The cells were incubated at 37 °C in a humidified atmosphere containing 5% CO2 for 24 h. After incubation, the cells were treated with EUD and EUA extracts at concentrations ranging from 3.5 µg/mL to 250 µg/mL and incubated for an additional 48 h. The cell lines were kindly donated by Cemib (Multidisciplinary Center for Biological Research in the Laboratory Animal Science Area, Campinas, Brazil)—Unicamp/SP.
(§2) One row of wells was treated only with the vehicle (culture medium) to serve as the negative control, representing 100% cell viability. Doxorubicin (Libbs®, São Paulo, Brazil) and carboplatin (Blau Farmacêutica®, São Paulo, Brazil) were used as the positive controls.
Following treatment, the medium was removed, and 100 µL/well of MTT reagent (5 mg/mL; 3-[4,5-dimethylthiazol-2-yl]-2,5-diphenyltetrazolium bromide; Invitrogen, Thermo Fisher, Waltham, MA, USA) was added. The plates were incubated for 4 h at 37 °C. After incubation, the resulting formazan crystals formed in viable cells were solubilized by adding 100 µL/well of DMSO (dimethyl sulfoxide; Labsynth, São Paulo, Brazil). Absorbance was measured at 570 nm using an Epoch-Biotek ELISA microplate spectrophotometer (BioTek Instruments, Winooski, VT, USA).
Statistical analysis was performed using GraphPad Prism 8.4.6 (GraphPad Software, Inc., Boston, MA, USA) via one-way ANOVA followed by Tukey’s post hoc test. Differences were considered statistically significant at p < 0.05. All the experiments were conducted in triplicate.

[3] = tested on: NIH/3T3 (murine fibroblast) cells; assay: MTT cell viability assay in NIH/3T3 cells; type: cell-based
Experimental: as §1, §2
Following treatment, the medium was removed, and 100 µL/well of MTT reagent (5 mg/mL; 3-[4,5-dimethylthiazol-2-yl]-2,5-diphenyltetrazolium bromide; Invitrogen, Thermo Fisher, Waltham, MA, USA) was added. […] Absorbance was measured at 570 nm using an Epoch-Biotek ELISA microplate spectrophotometer (BioTek Instruments, Winooski, VT, USA). […]

HeLa cells [4] = assay: Cell cycle analysis by flow cytometry with PI staining; type: cell-based, human; conditions: treated at IC50, 48 h
Experimental: The HeLa cells (2 × 10^5 cells/well) were seeded in 6-well plates and incubated for 24 h. The cells were then treated with the EUD and EUA extracts and doxorubicin at their respective IC50 concentrations. The vehicle-treated cells served as the negative control. After 48 h, cells were harvested with trypsin, centrifuged, fixed in 70% ethanol, and stained with propidium iodide (PI) (Sigma-Aldrich®). The samples were incubated at 37 °C for 30 min in the dark and analyzed using a BD Accuri™ C6 Plus flow cytometer. Histograms were processed with the Cell Quest Pro software (version 5.1). Data was analyzed using two-way ANOVA in GraphPad Prism 8.4.3, with significance at p < 0.05.

HeLa cells [5] = assay: Cell migration assay (scratch assay); type: cell-based, human; conditions: EUD 7.5 μg/mL, EUA 10 μg/mL, doxorubicin 0.375 μg/mL
Experimental: The HeLa cells (70,000–80,000 cells/well) were seeded in 24-well plates with DMEM supplemented with 10% FBS and 1% Pen/Strep and incubated at 37 °C with 5% CO2 until 80% confluence. The medium was replaced with DMEM containing 0.2% FBS, and after 24 h, a scratch was made in the cell monolayer using a 1000 µL pipette tip. The cells were washed with sterile PBS, and they were treated with doxorubicin (positive control) and EUD and EUA extracts at ¼ of their IC50 values: 7.5 µg/mL (EUD), 10 µg/mL (EUA), and 0.375 µg/mL (doxorubicin).
Images were captured at 0 h (T0), 12 h (T1), 18 h (T2), and 24 h (T3) using an EVOS XL Core Imaging System microscope (10× objective). Scratch area percentages were analyzed using the ImageJ software 1.54g/Java 1.8.0_421 (32-bit), and statistical analysis was performed using one-way ANOVA with GraphPad Prism 8.4.3. All the experiments were conducted in triplicate.

[6] = tested on: liver (Hep-G2) cancer cells; conditions: in vitro; cited from earlier work
[7] = tested on: human cervical (HeLa) cancer cells; conditions: in vitro; cited from earlier work
[8] = tested on: breast cancer cells MDA-MB-468; parameters: method as in doi:10.3390/scipharm91030042; conditions: cited from earlier work
[9] = tested on: non-small-cell lung cancer cells NCI-H358; parameters: method as in doi:10.3390/scipharm91030042; conditions: cited from earlier work
[10] = tested on: SiHa cells, a cervical squamous cell carcinoma line; parameters: method as in PMID 37935292; conditions: cited from earlier work
[11] = tested on: breast cancer cells MDA-MB-231; parameters: method as in doi:10.3390/scipharm91030042; conditions: cited from earlier work
[12] = tested on: non-small-cell lung cancer cells A549; parameters: method as in doi:10.3390/scipharm91030042; conditions: cited from earlier work

Question: With `N.N.O=C([O-])C1(C(=O)[O-])CCC1.[Pt+2]` [Carboplatin] as the compound, how does the “Selectivity Index (SI)” value [1] read?
Answer: Its value is 0.73.

Question: And the “IC50 Tumor Cells HeLa” value ([2]; 48 h treatment)?
Answer: Its value is 52.40 µg/mL.

Question: What about the “concentrations with statistically significant reduction of HeLa cell viability vs negative control” value ([2]; p < 0.05) of the same compound?
Answer: The value was greater than 25 µg/mL.

Question: What about the “IC50 Non-Tumor cells NIH/3T3” value ([3]; 48 h treatment) of the same compound?
Answer: Its value is 38.32 µg/mL.

Question: Which “Selectivity Index (SI)” value [1] does the source give for `COc1cccc2c1C(=O)c1c(O)c3c(c(O)c1C2=O)C[C@@](O)(C(=O)CO)C[C@@H]3O[C@H]1C[C@H](N)[C@H](O)[C@H](C)O1` [Doxorubicin] here?
Answer: The value was 1.5.

Question: What about the “cells in SubG0 phase” value (HeLa cells [4]; negative control 2.97%) of the same compound?
Answer: The value was 44.20%.

Question: What about the “cells in G2/M phase” value (HeLa cells [4]; negative control 7.97%) of the same compound?
Answer: The value was 0.245%.

Question: What about the “cells in S phase” value (HeLa cells [4]; negative control 30.55%) of the same compound?
Answer: The value was 12.1%.

Question: And the “cells in G1/G0 phase” value (HeLa cells [4]; negative control 56.75%)?
Answer: The value was 42.75%.

Question: And the IC50 ([2]; Homo sapiens, HeLa, 48 h treatment, read-out: IC50 Tumor Cells HeLa)?
Answer: The IC50 was 1.59 µg/mL (≈ 2.93 µM).

Question: What about the “free area (scratch) at T1” value (HeLa cells [5]; 12 h) of the same compound?
Answer: The value was 39.51%.

Question: And the “free area (scratch) at T2” value (HeLa cells [5]; 18 h)?
Answer: The value was 36.49%.

Question: What about the “free area (scratch) at T3” value (HeLa cells [5]; 24 h) of the same compound?
Answer: Its value is 32.17%.

Question: What about the “inhibition of cell migration compared to the negative control” value (HeLa cells [5]) of the same compound?
Answer: Its value is “did not significantly inhibit tumor cell migration”.

Question: What about the IC50 ([3]; Mus musculus, NIH3T3, 48 h treatment, read-out: IC50 Non-Tumor cells NIH/3T3) of the same compound?
Answer: The IC50 was 2.32 µg/mL (≈ 4.27 µM).

Question: With unifloratrin as the compound, how does the “cytotoxicity against Hep-G2 cancer cells” value [6] read?
Answer: The value was “considerable cytotoxicity”.

Question: What about the “cytotoxicity against HeLa cancer cells” value [7] of the same compound?
Answer: Its value is “considerable cytotoxicity”.

Question: Which “effect on proliferation of MDA-MB-468 cells” value [8] does the source give for `O=c1oc2c(O)c(O)cc3c(=O)oc4c(O)c(O)cc1c4c23` [ellagic acid, Ellagic acid] here?
Answer: Its value is “inhibited the proliferation”.

Question: And the “effect on proliferation of NCI-H358 cells” value [9]?
Answer: Its value is “inhibited the proliferation”.

Question: And the “effect on proliferation of SiHa cells” value [10]?
Answer: The value was “inhibit cell proliferation”.

Question: And the “effect on proliferation of MDA-MB-231 cells” value [11]?
Answer: The value was “inhibited the proliferation”.

Question: And the “effect on proliferation of A549 cells” value [12]?
Answer: The value was “inhibited the proliferation”.

Question: For myricitrin, which “cytotoxicity against Hep-G2 cancer cells” value [6] is on record?
Answer: The value was “considerable cytotoxicity”.

Question: What about the “cytotoxicity against HeLa cancer cells” value [7] of the same compound?
Answer: The value was “considerable cytotoxicity”.

From publication PMC12389018, “Eugenia uniflora L.: Analysis of Chemical Profile and Cytotoxic Action on Tumor (HeLa) and Non-Tumor Cells (NIH/3T3)” (Pharmaceuticals, 2025)
